Test results published in ChEMBL document CHEMBL1136087, “Synthesis of radiolabeled biphenylsulfonamide matrix metalloproteinase inhibitors as new potential PET cancer imaging agents” (Bioorg Med Chem Lett, 2003).

Target: Collagenase 3 (Homo sapiens) (UniProt P45452)
Experiment: Inhibition of human matrix metalloprotease-13 at 20 nM

Row | Compound | Inhibition effect
1 | CC(C)[C@H](NS(=O)(=O)c1ccc(-c2ccc(F)cc2)cc1)C(=O)O | 0.918
2 | COC(=O)[C@@H](NS(=O)(=O)c1ccc(-c2cccc(OC)c2)cc1)C(C)C | 0.939
3 | COC(=O)[C@@H](NS(=O)(=O)c1ccc(-c2ccc(F)cc2)cc1)C(C)C | 0.91
4 | COC(=O)[C@@H](NS(=O)(=O)c1ccc(-c2ccc(OC)cc2)cc1)C(C)C | 0.935
5 | COC(=O)[C@@H](NS(=O)(=O)c1ccc(-c2ccccc2OC)cc1)C(C)C | 0.942
6 | COC(=O)[C@@H](NS(=O)(=O)c1ccc(-c2ccccc2F)cc1)C(C)C | 0.922
7 | COC(=O)[C@@H](NS(=O)(=O)c1ccc(-c2cccc(F)c2)cc1)C(C)C | 0.919
8 | COc1ccc(-c2ccc(S(=O)(=O)N[C@H](C(=O)O)C(C)C)cc2)cc1 | 0.938
9 | COC(=O)[C@@H](NS(=O)(=O)c1ccc(-c2ccc([N+](=O)[O-])cc2)cc1)C(C)C | 0.883
10 | CC(C)[C@H](NS(=O)(=O)c1ccc(-c2ccc([N+](=O)[O-])cc2)cc1)C(=O)O | 0.897
